The values below come from US11673898B2, “Substituted inhibitors of menin-MLL and methods of use” (Kura Oncology, Inc., priority 2016, dated 2023).

pIC50: −log10 of the molar value. Bounds are passed on as bounds.

The target of the test is T1, Menin MLL 4-43 (Homo sapiens, UniProt O00255).
T1 sequence (O00255 1-610): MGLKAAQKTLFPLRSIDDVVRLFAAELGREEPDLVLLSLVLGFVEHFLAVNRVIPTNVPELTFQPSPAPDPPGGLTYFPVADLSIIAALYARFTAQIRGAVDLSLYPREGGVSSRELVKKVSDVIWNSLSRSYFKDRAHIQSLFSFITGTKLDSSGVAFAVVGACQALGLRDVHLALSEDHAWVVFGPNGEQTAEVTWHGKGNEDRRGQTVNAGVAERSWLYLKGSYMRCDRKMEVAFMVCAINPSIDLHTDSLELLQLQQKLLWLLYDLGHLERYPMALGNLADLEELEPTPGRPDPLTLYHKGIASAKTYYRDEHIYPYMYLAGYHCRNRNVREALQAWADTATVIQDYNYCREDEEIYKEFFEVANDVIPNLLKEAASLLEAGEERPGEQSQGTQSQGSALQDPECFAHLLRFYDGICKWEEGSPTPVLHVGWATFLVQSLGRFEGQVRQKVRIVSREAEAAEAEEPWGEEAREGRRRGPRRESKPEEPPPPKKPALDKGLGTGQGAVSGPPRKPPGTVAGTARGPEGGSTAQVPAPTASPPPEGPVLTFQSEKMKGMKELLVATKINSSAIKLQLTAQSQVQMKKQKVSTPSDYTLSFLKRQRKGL
Description: Fluorescence polarization (FP) competition assay of the menin-MLL interaction. In kind it is binding. The following applies: fluorescence polarization assay; read-out: Menin MLL 4-43 IC50. For orientation: Fluorescence polarisation rises when a labelled molecule tumbles more slowly, as on binding a larger partner.
As usually defined, the pIC50 is the IC50 on a negative log10 scale, so that one unit is a factor of ten. As to `Cc1c(CN2CCC(Nc3nc(N)nc4sc(CC(F)(F)F)cc34)CC2)ccc2c1cc(C#N)n2C[C@H](C)N1CCC(S(C)(=O)=O)CC1` [Compound 158], the pIC50 was over 7.30.

As for `C[C@@H](Cn1c(C#N)cc2cc(CN3CCC(Nc4ncnc5sc(CC(F)(F)F)cc45)CC3)c(O)cc21)N1CCN(C=O)CC1` [Compound 159], the pIC50 was 6.60 to 7.30.

Take `C[C@@H](Cn1c(C#N)cc2cc(CN3CCC(Nc4ncnc5sc(CC(F)(F)F)cc45)CC3)c(O)cc21)N1CCN(S(C)(=O)=O)CC1` [Compound 160]: the pIC50 is 6.60 to 7.30.

Regarding `[2H]C1([2H])N(C(C)Cn2c(C#N)cc3c(C)c(CN4CCC(Nc5ncnc6sc(CC(F)(F)F)cc56)CC4)ccc32)C([2H])([2H])C([2H])([2H])N(S(C)(=O)=O)C1([2H])[2H]` (centres unmarked) [Compound 161], the pIC50 is 6.60 to 7.30.

With `Cc1c(CN2CCC(Nc3ncnc4sc(CC(F)(F)F)cc34)CC2)ccc2c1cc(C#N)n2C[C@H](C)N1CCN(S(C)(=O)=O)[C@@H](C(N)=O)C1` [Compound 164], the pIC50 is 6.60 to 7.30.

With `Cc1c(CN2CCC(Nc3nc(N)nc4sc(CC(F)(F)F)cc34)CC2)ccc2c1cc(C#N)n2C[C@H](C)N1CCN(C(C)C)CC1` [Compound 166], the pIC50 is over 7.30.

Regarding `Cc1c(CN2CCC(Nc3nc(N)nc4sc(CC(F)(F)F)cc34)CC2)ccc2c1cc(C#N)n2C[C@@H](C)N1CCN(S(C)(=O)=O)CC1` [Compound 167], the pIC50 was 6.60 to 7.30.

Turning to `Cc1c(CN2CCC(Nc3nc(N)nc4sc(CC(F)(F)F)cc34)CC2)ccc2c1cc(C#N)n2C[C@H](C)N1CCC(F)(F)CC1` [Compound 168], the pIC50 is 6.60 to 7.30.

With `Cc1c(CN2CCC(Nc3ncnc4sc(CC(F)(F)F)cc34)CC2)ccc2c1cc(C#N)n2CC(C)N1CC(NS(C)(=O)=O)C1` (centres unmarked) [Compound 169], the pIC50 was 6.00 to 7.70.

`Cc1c(CN2CCC(Nc3nc(N(C)C)nc4sc(CC(F)(F)F)cc34)CC2)ccc2c1cc(C#N)n2C[C@H](C)N1CCN(S(C)(=O)=O)CC1` [Compound 170]: the pIC50 is under 6.00.

Turning to `Cc1c(CN2CCC(Nc3nc(C4CC4)nc4sc(CC(F)(F)F)cc34)CC2)ccc2c1cc(C#N)n2C[C@H](C)N1CCN(S(C)(=O)=O)CC1` [Compound 173], the pIC50 is 6.00 to 7.70.

Consider `Cc1nc(NC2CCN(Cc3ccc4c(cc(C#N)n4C[C@H](C)N4CCN(CC(N)=O)CC4)c3C)CC2)c2cc(CC(F)(F)F)sc2n1` [Compound 178], for which the pIC50 was over 7.30.

As for `Cc1c(CN2CCC(Nc3nc(N)nc4sc(CC(F)(F)F)cc34)CC2)ccc2c1cc(C#N)n2C[C@H](C)N1C[C@@H](C)N(S(C)(=O)=O)[C@H](C)C1` [Compound 179], the pIC50 was 6.60 to 7.30.

As to `Cc1c(CN2CCC(Nc3nc(N)nc4sc(CC(F)(F)F)cc34)CC2)ccc2c1cc(C#N)n2C[C@@H](C)N1C[C@@H](C)N(S(C)(=O)=O)[C@H](C)C1` [Compound 180], the pIC50 is 6.60 to 7.30.

In the case of `CNc1nc(NC2CCN(Cc3ccc4c(cc(C#N)n4C[C@H](C)N4CCN(CC(N)=O)CC4)c3C)CC2)c2cc(CC(F)(F)F)sc2n1` [Compound 182], the pIC50 was over 7.30.

Regarding `CNS(=O)(=O)C1CCN([C@@H](C)Cn2c(C#N)cc3c(C)c(CN4CCC(Nc5nc(N)nc6sc(CC(F)(F)F)cc56)CC4)ccc32)CC1` [Compound 184], the pIC50 was over 7.30.

On to `CNc1nc(NC2CCN(Cc3ccc4c(cc(C#N)n4C[C@H](C)N4CCC(S(=O)(=O)NC)CC4)c3C)CC2)c2cc(CC(F)(F)F)sc2n1` [Compound 185], for which the pIC50 was 6.60 to 7.30.

For the compound `CNS(=O)(=O)C1CCN([C@@H](C)Cn2c(C#N)cc3c(C)c(CN4CCC(Nc5nc(C)nc6sc(CC(F)(F)F)cc56)CC4)ccc32)CC1` [Compound 186], the pIC50 is over 7.30.

As to `Cc1c(CN2CCC(Nc3nc(N)nc4sc(CC(F)(F)F)cc34)CC2)ccc2c1cc(C#N)n2C[C@H](C)N1CCN(S(=O)(=O)CCO)CC1` [Compound 187], the pIC50 was over 7.30.

Consider `Cc1c(CN2CCC(Nc3nc(N)nc4sc(CC(F)(F)F)cc34)CC2)ccc2c1cc(C#N)n2C[C@H](C)N1CCOCC1` [Compound 188], for which the pIC50 is 6.60 to 7.30.

On to `CNC(=O)CN1CCN([C@@H](C)Cn2c(C#N)cc3c(C)c(CN4CCC(Nc5nc(NC)nc6sc(CC(F)(F)F)cc56)CC4)ccc32)CC1` [Compound 189], for which the pIC50 is over 7.30.

With `Cc1c(CN2CCC(Nc3nc(N)nc4sc(CC(F)(F)F)cc34)CC2)ccc2c1cc(C#N)n2C[C@H](C)N1CCN(C2CC2)CC1` [Compound 190], the pIC50 was 6.60 to 7.30.

As for `CNc1nc(NC2CCN(Cc3ccc4c(cc(C#N)n4C[C@H](C)N4CCN(CC(=O)N(C)C)CC4)c3C)CC2)c2cc(CC(F)(F)F)sc2n1` [Compound 191], the pIC50 is over 7.30.

Consider `CNc1nc(NC2CCN(Cc3ccc4c(cc(C#N)n4C[C@H](C)N4CCN(S(=O)(=O)NC)CC4)c3C)CC2)c2cc(CC(F)(F)F)sc2n1` [Compound 192], for which the pIC50 is over 7.30.

Take `CNc1nc(NC2CCN(Cc3ccc4c(cc(C#N)n4C[C@H](C)N4CCC(S(C)(=O)=O)CC4)c3C)CC2)c2cc(CC(F)(F)F)sc2n1` [Compound 193]: the pIC50 is over 7.30.

With `CNc1nc(NC2CCN(Cc3cc4cc(C#N)n(C[C@H](C)N5CCN(S(C)(=O)=O)CC5)c4cc3O)CC2)c2cc(CC(F)(F)F)sc2n1` [Compound 194], the pIC50 is over 7.30.

Regarding `CNc1nc(NC2CCN(Cc3ccc4c(cc(C#N)n4C[C@H](C)N4CCC(F)(F)CC4)c3C)CC2)c2cc(CC(F)(F)F)sc2n1` [Compound 195], the pIC50 is 6.60 to 7.30.

Consider `CNc1nc(NC2CCN(Cc3ccc4c(cc(C#N)n4C[C@H](C)N4CCN(S(C)(=O)=O)[C@H](C(=O)N(C)C)C4)c3C)CC2)c2cc(CC(F)(F)F)sc2n1` [Compound 196], for which the pIC50 was over 7.30.

With `CNC(=O)[C@@H]1CN([C@@H](C)Cn2c(C#N)cc3c(C)c(CN4CCC(Nc5nc(NC)nc6sc(CC(F)(F)F)cc56)CC4)ccc32)CCN1S(C)(=O)=O` [Compound 197], the pIC50 is over 7.30.

For `CNc1nc(NC2CCN(Cc3ccc4c(cc(C#N)n4C[C@H](C)N4CCN(S(=O)(=O)CF)CC4)c3C)CC2)c2cc(CC(F)(F)F)sc2n1` [Compound 198], the pIC50 was 6.60 to 7.30.

With `CCOC(=O)c1c(CC(F)(F)F)sc2ncnc(NC3CCN(Cc4ccc5c(cc(C#N)n5C[C@H](C)N5CCN(S(C)(=O)=O)CC5)c4C)CC3)c12` [Compound 200], the pIC50 was under 6.00.

On to `Cc1nc(NC2CCN(Cc3ccc4c(cc(C#N)n4C[C@@H](C)N4CCN(S(C)(=O)=O)CC4)c3C)CC2)c2cc(CC(F)(F)F)sc2n1` [Compound 201], for which the pIC50 was 6.00 to 7.70.

Turning to `CNc1nc(NC2CCN(Cc3ccc4c(cc(C#N)n4C[C@H](C)N4CCC(CC(=O)N(C)C)CC4)c3C)CC2)c2cc(CC(F)(F)F)sc2n1` [Compound 202], the pIC50 was over 7.30.

Take `CNc1nc(NC2CCN(Cc3ccc4c(cc(C#N)n4C[C@H](C)N4CCC(CC(N)=O)CC4)c3C)CC2)c2cc(CC(F)(F)F)sc2n1` [Compound 204]: the pIC50 is over 7.30.

For `CNC(=O)CC1CCN([C@@H](C)Cn2c(C#N)cc3c(C)c(CN4CCC(Nc5nc(NC)nc6sc(CC(F)(F)F)cc56)CC4)ccc32)CC1` [Compound 206], the pIC50 is over 7.30.

Consider `CNc1nc(NC2CCN(Cc3ccc4c(cc(C#N)n4C[C@H](C)N4CCN(S(C)(=O)=O)[C@H](C#N)C4)c3C)CC2)c2cc(CC(F)(F)F)sc2n1` [Compound 209], for which the pIC50 was over 7.30.

For the compound `CCS(=O)(=O)N1CCN([C@@H](C)Cn2c(C#N)cc3c(C)c(CN4CCC(Nc5nc(NC)nc6sc(CC(F)(F)F)cc56)CC4)ccc32)CC1` [Compound 210], the pIC50 is over 7.30.

For `CNc1nc(NC2CCN(Cc3ccc4c(cc(C#N)n4C[C@H](C)N4CCN(S(=O)(=O)C5CC5)CC4)c3C)CC2)c2cc(CC(F)(F)F)sc2n1` [Compound 211], the pIC50 was 6.60 to 7.30.

For `C=CC(=O)NC1CCN([C@@H](C)Cn2c(C#N)cc3c(C)c(CN4CCC(Nc5nc(NC)nc6sc(CC(F)(F)F)cc56)CC4)ccc32)CC1` [Compound 212], the pIC50 is over 7.30.

Take `CCC(=O)NC1CCN([C@@H](C)Cn2c(C#N)cc3c(C)c(CN4CCC(Nc5nc(NC)nc6sc(CC(F)(F)F)cc56)CC4)ccc32)CC1` [Compound 213]: the pIC50 was over 7.30.

On to `CNc1nc(NC2CCN(Cc3ccc4c(cc(C#N)n4C[C@H](C)N4CCOC(C(=O)N(C)C)C4)c3C)CC2)c2cc(CC(F)(F)F)sc2n1` (some centres unmarked) [Compound 215], for which the pIC50 was over 7.30.

`CNc1nc(NC2CCN(Cc3ccc4c(cc(C#N)n4C[C@H](C)N4CCOC(C(N)=O)C4)c3C)CC2)c2cc(CC(F)(F)F)sc2n1` (some centres unmarked) [Compound 216]: the pIC50 was over 7.30.

In the case of `Cc1nc(NC2CCN(Cc3ccc4c(cc(C#N)n4C[C@H](C)N4CCS(=O)(=O)CC4)c3C)CC2)c2cc(CC(F)(F)F)sc2n1` [Compound 219], the pIC50 is over 7.30.

As for `CNC(=O)CC1CCN([C@@H](C)Cn2c(C#N)cc3c(C)c(CN4CCC(Nc5nc(C)nc6sc(CC(F)(F)F)cc56)CC4)ccc32)CC1` [Compound 220], the pIC50 is over 7.30.

With `Cc1nc(NC2CCN(Cc3ccc4c(cc(C#N)n4C[C@H](C)N4CCC(CC(=O)N(C)C)CC4)c3C)CC2)c2cc(CC(F)(F)F)sc2n1` [Compound 221], the pIC50 was over 7.30.

For `Cc1c(CN2CCC(Nc3nc(F)nc4sc(CC(F)(F)F)cc34)CC2)ccc2c1cc(C#N)n2C[C@H](C)N1CCN(S(C)(=O)=O)CC1` [Compound 222], the pIC50 was over 7.30.

Regarding `CNc1nc(NC2CCN(Cc3ccc4c(cc(C#N)n4C[C@H](C)N4CCNCC4=O)c3C)CC2)c2cc(CC(F)(F)F)sc2n1` [Compound 225], the pIC50 is over 7.30.
